What was measured:
Type in all cases: cell-based
[1] = tested on: spring wheat Pavon 79 microspores; assay: AGP concentrations in microspore culture in MMS4 liquid media; conditions: for # at Day 12 Alive / # at Day 12 Dead / # at Day 12 Dividing / # at Day 12 ELS / # at Day 12 Multicellular / # at Day 12 Total Developing / Day 50 # of embryos: 4 rep average
Experimental: In an experiment with Pavon 79, concentrations of 0, 10, 25, 50, 100, 500 and 1000 mg/L were used in microspore culture with 4 ovaries around a drop of liquid medium with microspores on top of solidified medium. […] However, higher concentrations can also be used. […] It was observed that 10 to 14 days in induction medium with AGP may be maximal as it appears that regeneration may be reduced with longer periods on medium with AGP.

[2] = tested on: spring wheat Pavon 79 isolated microspores; assay: AGP in isolated microspore culture, liquid medium versus filter paper, co-cultured with ovaries; conditions: for Total # Embryos/Plate: MMS4, with ovaries
Experimental: […] […] The results are similar for liquid and filter paper at the 3 compared concentrations, and 10 mg/liter of AGP gave the best response.

[3] = tested on: wheat isolated microspores cv Pavon 79; assay: Response of wheat isolated microspore cultures to AGP levels in MMS4 medium, with and without ovaries; conditions: MMS4, cv Pavon 79
Experimental: (§1) The effect of AGP on embryogenesis and plant regeneration was assessed in wheat microspores which were isolated from genotype Pavon 79 according to the method of the present invention. AGP levels of 0, 1, 5, and 10 mg/liter were tested. [table] […] Additionally, the data illustrates the presence of ovaries in co-culture enhanced embryogenesis and plant regeneration. Only at 10 mg/liter of AGP was significant embryogenesis observed in the absence of ovary co-culture. FIG. 5(a) illustrates the comparative response of wheat microspores to the presence or absence of wheat ovaries and 0 or 10 mg/L AGP. FIG. 6 illustrates the good embryo structure developed in wheat after 4 weeks on medium with ovaries and AGP.

[4] = tested on: wheat (cv. Pavon 76) microspores; assay: Influence of regeneration media on plant development from wheat microspores; conditions: AGP in regeneration media
Experimental: A comparison of regeneration media composition was conducted for wheat microspores induced on a medium in the presence and absence AGP. The regeneration medium was based on MMS4 medium having either 3% sucrose or 9% maltose as a sugar source, or in an AGP-containing medium based on MMS4 with 9% maltose. The microspores were either induced on a support, in this case, a Watman #2 filter disk, or were placed on a solid media in liquid drops. […] Sucrose within the regeneration media was effective in producing a high percentage of green plants, however maltose was also found to be effective. Without wishing to be bound by theory, this may be due to the quicker release of energy from sucrose that is required for regeneration.

[5] = tested on: wheat microspores cv Pavon 79; assay: Regeneration of plants from wheat microspores with AGP in induction media MMS4; conditions: for # of plants Albino / # of plants Total / # of plants green / % of green plants / % of regen.: 250 embryos transferred to regeneration medium; for Total # of embryos: induction media MMS4, cv Pavon 79
Experimental: as §1, with “tested.” for “tested. [table]”

arabinogalactan protein [AGP]
# at Day 12 Alive ([1]; AGP 10 mg/L): 69.3
# at Day 12 Dead ([1]; AGP 10 mg/L): 58.9
# at Day 12 Dividing ([1]; AGP 10 mg/L): 23.9
# at Day 12 ELS ([1]; AGP 10 mg/L): 8.7
# at Day 12 Multicellular ([1]; AGP 10 mg/L): 33.8
# at Day 12 Total Developing ([1]; AGP 10 mg/L): 66.4
Day 50 # of embryos ([1]; AGP 10 mg/L): 4493
# at Day 12 Alive ([1]; AGP 25 mg/L): 66.6
# at Day 12 Dead ([1]; AGP 25 mg/L): 69.3
# at Day 12 Dividing ([1]; AGP 25 mg/L): 13.6
# at Day 12 ELS ([1]; AGP 25 mg/L): 10.3
# at Day 12 Multicellular ([1]; AGP 25 mg/L): 38
# at Day 12 Total Developing ([1]; AGP 25 mg/L): 61.9
Day 50 # of embryos ([1]; AGP 25 mg/L): 3538
# at Day 12 Alive ([1]; AGP 50 mg/L): 47.9
# at Day 12 Dead ([1]; AGP 50 mg/L): 75
# at Day 12 Dividing ([1]; AGP 50 mg/L): 10.7
# at Day 12 ELS ([1]; AGP 50 mg/L): 5
# at Day 12 Multicellular ([1]; AGP 50 mg/L): 13.2
# at Day 12 Total Developing ([1]; AGP 50 mg/L): 28.9
Day 50 # of embryos ([1]; AGP 50 mg/L): 471
# at Day 12 Alive ([1]; AGP 100 mg/L): 66.4
# at Day 12 Dead ([1]; AGP 100 mg/L): 61
# at Day 12 Dividing ([1]; AGP 100 mg/L): 17.3
# at Day 12 ELS ([1]; AGP 100 mg/L): 2.9
# at Day 12 Multicellular ([1]; AGP 100 mg/L): 32.2
# at Day 12 Total Developing ([1]; AGP 100 mg/L): 52.4
Day 50 # of embryos ([1]; AGP 100 mg/L): 3709
# at Day 12 Alive ([1]; AGP 500 mg/L): 57.3
# at Day 12 Dead ([1]; AGP 500 mg/L): 61
# at Day 12 Dividing ([1]; AGP 500 mg/L): 19.4
# at Day 12 ELS ([1]; AGP 500 mg/L): 4.5
# at Day 12 Multicellular ([1]; AGP 500 mg/L): 27.7
# at Day 12 Total Developing ([1]; AGP 500 mg/L): 51.6
Day 50 # of embryos ([1]; AGP 500 mg/L): 3267
# at Day 12 Alive ([1]; AGP 1000 mg/L): 69.3
# at Day 12 Dead ([1]; AGP 1000 mg/L): 56
# at Day 12 Dividing ([1]; AGP 1000 mg/L): 14.8
# at Day 12 ELS ([1]; AGP 1000 mg/L): 7
# at Day 12 Multicellular ([1]; AGP 1000 mg/L): 28.5
# at Day 12 Total Developing ([1]; AGP 1000 mg/L): 50.3
Day 50 # of embryos ([1]; AGP 1000 mg/L): 1821
microspore viability at day 12 versus control with no AGP ([1]; AGP 10-1000 mg/L, Pavon 79): not significantly different from the control value
embryogenesis across AGP concentrations ([1]; AGP concentrations of 10 or 25 mg/liter): optimal embryogenesis
total number of developing structures ([1]; in the presence of AGP, day 12, Pavon 79): improved
embryo response in liquid and on filter paper ([2]; 10 mg/liter of AGP compared with 0 and 5 mg/liter): best response
Total # Embryos/Plate ([2]; AGP 1 mg/L, Liquid): 2130
Total # Embryos/Plate ([2]; AGP 5 mg/L, Filter): 3080
Total # Embryos/Plate ([2]; AGP 5 mg/L, Liquid): 3393
Total # Embryos/Plate ([2]; AGP 10 mg/L, Filter): 4528
Total # Embryos/Plate ([2]; AGP 10 mg/L, Liquid): 4250
# alive and dividing d 10 ([3]; AGP 1 mg/L, ovary +): 22605
# alive not dividing d 10 ([3]; AGP 1 mg/L, ovary +): 2805
# dead microspores d 10 ([3]; AGP 1 mg/L, ovary +): 47175
# embryos 30 days ([3]; AGP 1 mg/L, ovary +): 2130
# multicell burst d 10 ([3]; AGP 1 mg/L, ovary +): 1072
# multicellular d 10 ([3]; AGP 1 mg/L, ovary +): 18500
# alive and dividing d 10 ([3]; AGP 1 mg/L, ovary −): 22125
# alive not dividing d 10 ([3]; AGP 1 mg/L, ovary −): 5650
# dead microspores d 10 ([3]; AGP 1 mg/L, ovary −): 47558
# embryos 30 days ([3]; AGP 1 mg/L, ovary −): 0
# multicell burst d 10 ([3]; AGP 1 mg/L, ovary −): 400
# multicellular d 10 ([3]; AGP 1 mg/L, ovary −): 13750
# alive and dividing d 10 ([3]; AGP 5 mg/L, ovary +): 18272
# alive not dividing d 10 ([3]; AGP 5 mg/L, ovary +): 7600
# dead microspores d 10 ([3]; AGP 5 mg/L, ovary +): 30250
# embryos 30 days ([3]; AGP 5 mg/L, ovary +): 3393
# multicell burst d 10 ([3]; AGP 5 mg/L, ovary +): 7080
# multicellular d 10 ([3]; AGP 5 mg/L, ovary +): 39078
# alive and dividing d 10 ([3]; AGP 5 mg/L, ovary −): 26152
# alive not dividing d 10 ([3]; AGP 5 mg/L, ovary −): 8275
# dead microspores d 10 ([3]; AGP 5 mg/L, ovary −): 34500
# embryos 30 days ([3]; AGP 5 mg/L, ovary −): 0
# multicell burst d 10 ([3]; AGP 5 mg/L, ovary −): 742
# multicellular d 10 ([3]; AGP 5 mg/L, ovary −): 28345
# alive and dividing d 10 ([3]; AGP 10 mg/L, ovary +): 8500
# alive not dividing d 10 ([3]; AGP 10 mg/L, ovary +): 0
# dead microspores d 10 ([3]; AGP 10 mg/L, ovary +): 23550
# embryos 30 days ([3]; AGP 10 mg/L, ovary +): 4250
# multicell burst d 10 ([3]; AGP 10 mg/L, ovary +): 15452
# multicellular d 10 ([3]; AGP 10 mg/L, ovary +): 68000
# alive and dividing d 10 ([3]; AGP 10 mg/L, ovary −): 33275
# alive not dividing d 10 ([3]; AGP 10 mg/L, ovary −): 6250
# dead microspores d 10 ([3]; AGP 10 mg/L, ovary −): 24650
# embryos 30 days ([3]; AGP 10 mg/L, ovary −): 50
# multicell burst d 10 ([3]; AGP 10 mg/L, ovary −): 4620
# multicellular d 10 ([3]; AGP 10 mg/L, ovary −): 41950
effect of addition of AGP to the regeneration media on green plants [4]: reduced the number of green plants produced
# of plants Albino ([5]; AGP 1 mg/L with ovaries): 70
# of plants Total ([5]; AGP 1 mg/L with ovaries): 118
# of plants green ([5]; AGP 1 mg/L with ovaries): 48
% of green plants ([5]; AGP 1 mg/L with ovaries): 41%
% of regen. ([5]; AGP 1 mg/L with ovaries): 47%
Total # of embryos ([5]; AGP 1 mg/L with ovaries): 2130
# of plants Albino ([5]; AGP 5 mg/L with ovaries): 70
# of plants Total ([5]; AGP 5 mg/L with ovaries): 120
# of plants green ([5]; AGP 5 mg/L with ovaries): 50
% of green plants ([5]; AGP 5 mg/L with ovaries): 42%
% of regen. ([5]; AGP 5 mg/L with ovaries): 48%
Total # of embryos ([5]; AGP 5 mg/L with ovaries): 3393
# of plants Albino ([5]; AGP 10 mg/L with ovaries): 60
# of plants Total ([5]; AGP 10 mg/L with ovaries): 189
# of plants green ([5]; AGP 10 mg/L with ovaries): 129
% of green plants ([5]; AGP 10 mg/L with ovaries): 68%
% of regen. ([5]; AGP 10 mg/L with ovaries): 76%
Total # of embryos ([5]; AGP 10 mg/L with ovaries): 4250
embryogenesis, regeneration and % green plant production ([5]; addition of 10 mg/L of AGP, genotype Pavon 79): significant improvement
